In PMC4845862, “Quantification of active mitochondrial permeability transition pores using GNX-4975 inhibitor titrations provides insights into molecular identity” (Biochemical Journal, 2016):

Test system: adenine nucleotide translocase (ANT)
Assay: Binding of solubilized heart IMM proteins to immobilized phenylarsine oxide (Western blot of ANT)
Parameters: species or system beef and pig
Settings: heart mitochondria treated with 10 μM CAT prior to IMM isolation and solubilization
Procedure: Centrifugation steps in this process were carried out using a benchtop Eppendorf 5415R centrifuge at 4°C. Mitochondria were washed in ISB and centrifuged at 12 000 g for 5 min before re-suspension in ISB containing protease inhibitors (4 μg/ml each of antipan, pepstatin A and leupeptin plus 0.5 mM benzamidine and 0.5 mM PMSF). Mitochondria were incubated with digitonin (0.12 mg/mg of mitochondrial protein) at 4°C for 15 min on a rotary mixer, and the resulting mitoplasts collected by centrifugation at 9000 g for 10 min before resuspension in ISB containing protease inhibitors and PEG ether W1 (Sigma P7516, formerly known as Lubrol) at 0.16 mg/mg of mitochondrial protein. […]
An immobilized PAO matrix was synthesized by coupling 4-aminophenylarsine oxide to Affi-gel 10 (Bio-Rad Laboratories 153-6099) as described previously. The resin was washed twice in 10 volumes of PAO column buffer (PCB: 150 mM Na2SO4, 50 mM HEPES and 1 mM EGTA, pH 7.2) containing 0.5% (v/v) Triton X-100 and then resuspended to give a 50% (v/v) slurry ready for use. […] Samples were analysed by SDS/PAGE and Western blotting or analysed by Orbitrap MS in the University of Bristol Proteomics Facility. […] The integrated optical density for each band was calculated as the product of the ‘area’ and ‘mean grey value’ with subtraction of a background signal obtained for an equivalent adjacent area lacking any band. […]

## C=C1[C@@H]2CC[C@H]3[C@]4(C)C[C@H](O[C@@H]5O[C@H](CO)[C@@H](OS(=O)(=O)O)[C@H](OS(=O)(=O)O)[C@H]5OC(=O)CC(C)C)CC(C(=O)O)(C(=O)O)[C@H]4CC[C@]3(C2)[C@H]1O [CAT, carboxyatractyloside]
  ANT binding to the PAO column: totally prevented
